In the NIST ThermoML archive (doi:10.1016/j.tca.2018.08.017):
Where “and” joins values, the source holds several entries; their conditions need not be identical. Identical values can stand only once.

Settings: 101.33 kPa, Liquid

CCCCCCCCCCCCCCCCCC [octadecane]
viscosity
Settings | Concentric cylinders viscometry | Cone and plate viscometry
299.75 K | – | 3.95 mPa·s
299.95 K | – | 3.92 mPa·s
300.05 K | – | 4.21 mPa·s
300.15 K | – | 3.91 mPa·s and 4.12 mPa·s
300.35 K | – | 3.89 mPa·s and 4.09 mPa·s
300.55 K | – | 3.86 mPa·s
300.65 K | – | 4.06 mPa·s and 4.17 mPa·s
300.75 K | – | 3.84 mPa·s
300.85 K | – | 3.84 mPa·s and 4.04 mPa·s
300.95 K | – | 3.82 mPa·s
300.96 K | 4.095 mPa·s | –
301.15 K | – | 3.81 mPa·s and 4.02 mPa·s and 4.13 mPa·s
301.29 K | 4.068 mPa·s [middle of 4 runs] | –
301.35 K | – | 3.8 mPa·s and 4 mPa·s
301.36 K | 4.052 mPa·s | –
301.55 K | – | 3.8 mPa·s
301.65 K | – | 3.98 mPa·s and 4.09 mPa·s
301.75 K | – | 3.76 mPa·s and 3.74 mPa·s
301.76 K | 4.011 mPa·s | –
301.84 K | 4.009 mPa·s | –
301.85 K | – | 3.96 mPa·s
301.95 K | – | 3.77 mPa·s
302.05 K | – | 3.71 mPa·s
302.15 K | – | 3.76 mPa·s and 3.93 mPa·s and 4.04 mPa·s
302.18 K | 3.967 mPa·s | –
302.35 K | – | 3.72 mPa·s and 3.91 mPa·s
302.45 K | – | 3.69 mPa·s
302.55 K | – | 3.73 mPa·s
302.58 K | 3.927 mPa·s | –
302.64 K | 3.926 mPa·s | –
302.65 K | – | 3.88 mPa·s and 4.01 mPa·s
302.75 K | – | 3.71 mPa·s
302.85 K | – | 3.85 mPa·s and 3.66 mPa·s
302.95 K | – | 3.69 mPa·s
302.96 K | 3.884 mPa·s | –
303.15 K | – | 3.72 mPa·s [middle of 6 runs]
303.35 K | – | 3.67 mPa·s and 3.81 mPa·s
303.38 K | 3.837 mPa·s [middle of 5 runs] | –
303.4 K | 3.838 mPa·s | –
303.42 K | 3.846 mPa·s | –
303.55 K | – | 3.63 mPa·s and 3.61 mPa·s
303.65 K | – | 3.78 mPa·s and 3.93 mPa·s
303.75 K | – | 3.64 mPa·s
303.81 K | 3.799 mPa·s | –
303.85 K | – | 3.77 mPa·s and 3.59 mPa·s
303.95 K | – | 3.65 mPa·s
304.15 K | – | 3.6 mPa·s and 3.75 mPa·s and 3.89 mPa·s
304.19 K | 3.769 mPa·s | –
304.21 K | 3.762 mPa·s | –
304.25 K | – | 3.56 mPa·s
304.35 K | – | 3.58 mPa·s and 3.73 mPa·s
304.55 K | – | 3.57 mPa·s and 3.53 mPa·s
304.58 K | 3.727 mPa·s | –
304.65 K | – | 3.7 mPa·s and 3.85 mPa·s
304.75 K | – | 3.56 mPa·s
304.85 K | – | 3.69 mPa·s
304.92 K | 3.694 mPa·s | –
304.95 K | – | 3.53 mPa·s and 3.51 mPa·s
305.08 K | 3.678 mPa·s | –
305.15 K | – | 3.55 mPa·s and 3.67 mPa·s and 3.81 mPa·s
305.25 K | – | 3.48 mPa·s
305.35 K | – | 3.5 mPa·s and 3.64 mPa·s
305.46 K | 3.642 mPa·s | –
305.55 K | – | 3.5 mPa·s
305.65 K | – | 3.62 mPa·s and 3.47 mPa·s and 3.77 mPa·s
305.7 K | 3.624 mPa·s | –
305.75 K | – | 3.48 mPa·s
305.84 K | 3.606 mPa·s | –
305.85 K | – | 3.6 mPa·s
305.95 K | – | 3.46 mPa·s
306.05 K | – | 3.43 mPa·s
306.15 K | – | 3.47 mPa·s and 3.58 mPa·s and 3.72 mPa·s
306.23 K | 3.571 mPa·s | –
306.35 K | – | 3.47 mPa·s and 3.56 mPa·s and 3.42 mPa·s
306.42 K | 3.556 mPa·s | –
306.55 K | – | 3.44 mPa·s
306.61 K | 3.538 mPa·s | –
306.65 K | – | 3.54 mPa·s and 3.69 mPa·s
306.75 K | – | 3.42 mPa·s and 3.39 mPa·s
306.85 K | – | 3.52 mPa·s
306.95 K | – | 3.43 mPa·s
306.98 K | 3.502 mPa·s | –
307.05 K | – | 3.36 mPa·s
307.15 K | – | 3.42 mPa·s and 3.5 mPa·s and 3.66 mPa·s
307.3 K | 3.478 mPa·s | –
307.35 K | – | 3.4 mPa·s and 3.49 mPa·s
307.37 K | 3.469 mPa·s | –
307.45 K | – | 3.35 mPa·s
307.55 K | – | 3.39 mPa·s
307.65 K | – | 3.47 mPa·s and 3.62 mPa·s
307.72 K | 3.438 mPa·s | –
307.75 K | – | 3.38 mPa·s and 3.32 mPa·s
307.84 K | 3.426 mPa·s and 3.427 mPa·s | –
307.85 K | 3.426 mPa·s | 3.45 mPa·s
307.87 K | 3.426 mPa·s | –
307.93 K | 3.424 mPa·s | –
307.95 K | – | 3.35 mPa·s
308.07 K | 3.413 mPa·s | –
308.11 K | 3.404 mPa·s | –
308.15 K | – | 3.35 mPa·s [middle of 6 runs]
308.35 K | – | 3.31 mPa·s and 3.42 mPa·s
308.55 K | – | 3.29 mPa·s and 3.28 mPa·s
308.59 K | 3.363 mPa·s | –
308.65 K | – | 3.39 mPa·s and 3.53 mPa·s
308.75 K | – | 3.29 mPa·s
308.83 K | 3.349 mPa·s | –
308.85 K | – | 3.37 mPa·s and 3.26 mPa·s
308.95 K | – | 3.29 mPa·s
308.96 K | 3.333 mPa·s | –
309.15 K | – | 3.27 mPa·s and 3.36 mPa·s and 3.49 mPa·s
309.25 K | – | 3.25 mPa·s
309.3 K | 3.306 mPa·s | –
309.35 K | – | 3.26 mPa·s and 3.34 mPa·s
309.55 K | – | 3.28 mPa·s and 3.22 mPa·s
309.58 K | 3.286 mPa·s | –
309.65 K | – | 3.32 mPa·s and 3.45 mPa·s
